Assay results published in the supplement of paper PMC10307832.

Columns and labels:
Assay in all cases: relative viability (nuclei count vs DMSO), 5 days (fraction); higher = more cells survive
NCI-H1793 = tested on: NCI-H1793
Summary of the method: (§1)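 Lung cancer cell lines were seeded in 1536-well plates and dosed by pin tool the next day, with either a single drug or a fixed anchor-drug dose combined with five library-drug doses (not always all listed) spaced in √10 steps. Five days later, one step fixed the cells and stained their nuclei (final 0.05% Triton X-100, 1% formaldehyde, 1 ug/ml Hoechst), and nuclei were counted on 4× images. Relative viability is the nuclei count in treated wells divided by the count in vehicle wells, and each value is the median of duplicate plates.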

LC-2-ad = tested on: LC-2-ad
Summary of the method: as §1

EPLC-272H = tested on: EPLC-272H
Summary of the method: as §1

NCI-H1944 = tested on: NCI-H1944
Summary of the method: as §1

NCI-H2342 = tested on: NCI-H2342
Summary of the method: as §1

LK-2 = tested on: LK-2
Summary of the method: as §1

SW 1573 = tested on: SW 1573
Summary of the method: as §1

NCI-H1734 = tested on: NCI-H1734
Summary of the method: as §1

NCI-H2023 = tested on: NCI-H2023
Summary of the method: as §1

NCI-H322M = tested on: NCI-H322M
Summary of the method: as §1

ABC-1 = tested on: ABC-1
Summary of the method: as §1

NCI-H441 = tested on: NCI-H441
Summary of the method: as §1

NCI-H838 = tested on: NCI-H838
Summary of the method: as §1

NCI-H522 = tested on: NCI-H522
Summary of the method: as §1

A-427 = tested on: A-427
Summary of the method: as §1

NCI-H1915 = tested on: NCI-H1915
Summary of the method: as §1

UMC-11 = tested on: UMC-11
Summary of the method: as §1

NCI-H647 = tested on: NCI-H647
Summary of the method: as §1

RERF-LC-KJ = tested on: RERF-LC-KJ
Summary of the method: as §1

NCI-H358 = tested on: NCI-H358
Summary of the method: as §1

NCI-H2347 = tested on: NCI-H2347
Summary of the method: as §1

NCI-H2009 = tested on: NCI-H2009
Summary of the method: as §1

HCC-15 = tested on: HCC-15
Summary of the method: as §1

CN1CCN(CCOc2cc(OC3CCOCC3)c3c(Nc4c(Cl)ccc5c4OCO5)ncnc3c2)CC1 [Saracatinib] + O=C(CCCCCCC(=O)Nc1ccccc1)NO [Vorinostat] (partner 1 µM)
relative viability (NCI-H1793; first compound 0.02 µM): 0.878
relative viability (NCI-H1793; first compound 0.2 µM): 0.482
relative viability (NCI-H1793; first compound 0.6325 µM): 0.842
relative viability (NCI-H1793; first compound 2 µM): 0.601
relative viability (LC-2-ad; first compound 0.02 µM): 0.757
relative viability (LC-2-ad; first compound 0.2 µM): 0.668
relative viability (LC-2-ad; first compound 0.6325 µM): 0.777
relative viability (LC-2-ad; first compound 2 µM): 0.68
relative viability (EPLC-272H; first compound 0.02 µM): 0.306
relative viability (EPLC-272H; first compound 0.2 µM): 0.562
relative viability (EPLC-272H; first compound 0.6325 µM): 0.63
relative viability (EPLC-272H; first compound 2 µM): 0.424
relative viability (NCI-H1944; first compound 0.02 µM): 0.54
relative viability (NCI-H1944; first compound 0.2 µM): 0.542
relative viability (NCI-H1944; first compound 0.6325 µM): 0.509
relative viability (NCI-H1944; first compound 2 µM): 0.358
relative viability (NCI-H2342; first compound 0.02 µM): 0.774
relative viability (NCI-H2342; first compound 0.2 µM): 0.747
relative viability (NCI-H2342; first compound 0.6325 µM): 0.782
relative viability (NCI-H2342; first compound 2 µM): 0.833
relative viability (LK-2; first compound 0.02 µM): 0.353
relative viability (LK-2; first compound 0.2 µM): 0.317
relative viability (LK-2; first compound 0.6325 µM): 0.224
relative viability (LK-2; first compound 2 µM): 0.234
relative viability (SW 1573; first compound 0.02 µM): 0.699
relative viability (SW 1573; first compound 0.2 µM): 0.702
relative viability (SW 1573; first compound 0.6325 µM): 0.664
relative viability (SW 1573; first compound 2 µM): 0.47
relative viability (NCI-H1734; first compound 0.02 µM): 0.793
relative viability (NCI-H1734; first compound 0.6325 µM): 0.837
relative viability (NCI-H1734; first compound 2 µM): 0.652
relative viability (NCI-H2023; first compound 0.02 µM): 0.652
relative viability (NCI-H2023; first compound 0.2 µM): 0.591
relative viability (NCI-H2023; first compound 0.6325 µM): 0.73
relative viability (NCI-H2023; first compound 2 µM): 0.566
relative viability (NCI-H322M; first compound 0.02 µM): 0.73
relative viability (NCI-H322M; first compound 0.2 µM): 0.744
relative viability (NCI-H322M; first compound 0.6325 µM): 0.702
relative viability (NCI-H322M; first compound 2 µM): 0.37
relative viability (ABC-1; first compound 0.02 µM): 0.905
relative viability (ABC-1; first compound 0.2 µM): 0.99
relative viability (ABC-1; first compound 0.6325 µM): 1.37
relative viability (ABC-1; first compound 2 µM): 0.857
relative viability (NCI-H441; first compound 0.02 µM): 0.84
relative viability (NCI-H441; first compound 0.2 µM): 0.731
relative viability (NCI-H441; first compound 0.6325 µM): 0.913
relative viability (NCI-H441; first compound 2 µM): 0.94
relative viability (NCI-H838; first compound 0.02 µM): 0.685
relative viability (NCI-H838; first compound 0.2 µM): 0.681
relative viability (NCI-H838; first compound 0.6325 µM): 0.721
relative viability (NCI-H838; first compound 2 µM): 0.765
relative viability (NCI-H522; first compound 0.02 µM): 0.856
relative viability (NCI-H522; first compound 0.2 µM): 0.658
relative viability (NCI-H522; first compound 0.6325 µM): 0.897
relative viability (NCI-H522; first compound 2 µM): 0.778
relative viability (A-427; first compound 0.02 µM): 0.899
relative viability (A-427; first compound 0.2 µM): 0.852
relative viability (A-427; first compound 0.6325 µM): 0.795
relative viability (A-427; first compound 2 µM): 0.863
relative viability (NCI-H1915; first compound 0.02 µM): 0.472
relative viability (NCI-H1915; first compound 0.2 µM): 0.462
relative viability (NCI-H1915; first compound 0.6325 µM): 0.477
relative viability (NCI-H1915; first compound 2 µM): 0.477
relative viability (UMC-11; first compound 0.02 µM): 0.376
relative viability (UMC-11; first compound 0.2 µM): 0.363
relative viability (UMC-11; first compound 0.6325 µM): 0.388
relative viability (UMC-11; first compound 2 µM): 0.253
relative viability (NCI-H647; first compound 0.02 µM): 0.612
relative viability (NCI-H647; first compound 0.2 µM): 0.499
relative viability (NCI-H647; first compound 0.6325 µM): 0.532
relative viability (NCI-H647; first compound 2 µM): 0.45
relative viability (RERF-LC-KJ; first compound 0.02 µM): 0.87
relative viability (RERF-LC-KJ; first compound 0.2 µM): 0.729
relative viability (RERF-LC-KJ; first compound 0.6325 µM): 0.753
relative viability (RERF-LC-KJ; first compound 2 µM): 0.589
relative viability (NCI-H358; first compound 0.02 µM): 0.645
relative viability (NCI-H358; first compound 0.2 µM): 0.442
relative viability (NCI-H358; first compound 0.6325 µM): 0.526
relative viability (NCI-H358; first compound 2 µM): 0.255
relative viability (NCI-H2347; first compound 0.02 µM): 0.558
relative viability (NCI-H2347; first compound 0.2 µM): 0.413
relative viability (NCI-H2347; first compound 0.6325 µM): 0.719
relative viability (NCI-H2347; first compound 2 µM): 0.622
relative viability (NCI-H2009; first compound 0.02 µM): 0.754
relative viability (NCI-H2009; first compound 0.2 µM): 0.653
relative viability (NCI-H2009; first compound 0.6325 µM): 0.677
relative viability (NCI-H2009; first compound 2 µM): 0.744
relative viability (HCC-15; first compound 0.02 µM): 0.902
relative viability (HCC-15; first compound 0.2 µM): 0.859
relative viability (HCC-15; first compound 0.6325 µM): 0.931
relative viability (HCC-15; first compound 2 µM): 0.861
